Laboratory results: PubChem BioAssay (NCI)
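How tested: cells in 96-well plates exposed to compound for 48 hours at five concentrations. At the GI50, growth is halved. Definition used: TGI = concentration required for complete inhibition of growth.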

Tests used:
Experiment in all cases: DTP human tumour cell line panel, 48 h
M14 melanoma = system: M14 melanoma
NCI-H460 lung = system: NCI-H460 lung
LOX IMVI melanoma = system: LOX IMVI melanoma
CCRF-CEM leukemia = system: CCRF-CEM leukemia
HCC-2998 colon = system: HCC-2998 colon
786-0 renal = system: 786-0 renal
SN12C renal = system: SN12C renal
NCI-H522 lung = system: NCI-H522 lung
SK-MEL-5 melanoma = system: SK-MEL-5 melanoma
A549 NSCLC = system: A549 NSCLC

Compound	TGI (M14 melanoma) [µM]	TGI (NCI-H460 lung) [µM]	TGI (LOX IMVI melanoma) [µM]	TGI (CCRF-CEM leukemia) [µM]	TGI (HCC-2998 colon) [µM]	TGI (786-0 renal) [µM]	TGI (SN12C renal) [µM]	TGI (NCI-H522 lung) [µM]	TGI (SK-MEL-5 melanoma) [µM]	TGI (A549 NSCLC) [µM]	GI50 (M14 melanoma) [µM]	GI50 (NCI-H460 lung) [µM]	GI50 (LOX IMVI melanoma) [µM]	GI50 (CCRF-CEM leukemia) [µM]	GI50 (HCC-2998 colon) [µM]	GI50 (786-0 renal) [µM]	GI50 (SN12C renal) [µM]	GI50 (NCI-H522 lung) [µM]	GI50 (SK-MEL-5 melanoma) [µM]	GI50 (A549 NSCLC) [µM]
CC(=O)OC1COC(n2c(=S)n(-c3ccccc3)c(=O)c3cc(Br)ccc32)C(OC(C)=O)C1OC(C)=O (stereo not given)	> 100	> 100	> 100	> 100	> 100	> 100	> 100	> 100	> 100	> 100	–	–	–	–	–	–	–	–	–	–
COc1ccc(/C=C2/CCc3cc4ccc(OC)cc4[o+]c32)c(O)c1	14.6	9.74	5.02	> 100	32.6	19.8	7.93	30.5	41.1	41.6	3.1	2.8	2.12	3.88	15.3	3.97	2.51	12.7	14	18.5
O=C1C(Cl)=C(Nc2ccccc2)C(=O)c2ccccc21	3.57	> 100	2.86	> 100	4.29	19.6	3.59	3.77	2.89	42.2	1.88	27.2	0.856	2.37	2.15	6.57	1.82	1.66	1.5	15.5
CN(C)Cc1c[nH]c2c(NCCN)c3c(c(NCCN)c12)C(=O)c1ccccc1C3=O	16.9	26.8	1.88	8.93	8.37	7.8	1.88	3.26	9.14	16.2	3.51	8.04	0.556	1.06	2.45	0.71	0.372	1.13	3.86	3.39
COc1c(Br)cc(Br)c(OC)c1-c1[nH]c(Br)c(Br)c1Br	20.6	32.8	31.6	20.5	19.2	22.8	21.6	7.25	20.5	19.2	–	–	–	–	–	–	–	–	–	–
Cc1cc2c(Br)cc(Br)c(O)c2nc1C(=O)c1ccccc1	> 60.2	30.7	> 86	> 100	> 68.2	28.6	> 100	> 100	29.8	> 100	–	–	–	–	–	–	–	–	–	–
C=C1CC2(OC1=O)C(=O)N(CCCN1C(=O)C3(CC(=C)C(=O)O3)c3ccccc31)c1ccccc12 (stereo not given)	3.67	18.5	2.1	2.5	4.53	3.9	6.26	1.87	16.7	24	1.68	3.94	0.805	0.416	2.14	1.68	2.29	0.444	4.96	10.4
